Where two headings read alike, the source gives them in different places.
What was measured:
[1] = biological target: T1, Cytochrome Oxidase P450 2C19 (Homo sapiens, UniProt P33261); test: Inhibition of cytochrome oxidase P450; format: in vitro ADME; conditions: liver microsomes
T1 construct: a biochemical reaction of prepared liver microsomes supplemented with a redox coenzyme; from tissue; host or cells: liver microsomes
Method: Efficacy Experimental Example 5: Inhibition of Cytochrome Oxidase P450
100 mM K-Buffer: 9.5 mL of stock solution A was mixed with 40.5 mL of stock solution B, the total volume was adjusted to […] with ultrapure water, and the buffer was titrated to pH 7.4 with KOH or H3PO4.
The test substance powder was prepared into a stock solution at a certain concentration with DMSO or another organic solvent, which was then further diluted with a suitable organic solvent.
The liver microsomal in vitro incubation system for the CYP450 enzyme metabolism phenotype study was a biochemical reaction of prepared liver microsomes supplemented with a redox coenzyme and an enzyme-specific selective inhibitor under simulated physiological temperature and environment conditions.
The concentration of the parent drug or a metabolite thereof in the incubation solution was determined by LC-MS/MS.

[2] = Saturated solubility in FaSSIF solution; format: physicochemical; conditions: room temperature, stirred overnight
Method: Efficacy Experimental Example 9: Test of Saturated Solubility of Samples in FaSSIF Solution
About 0.21 g of sodium hydroxide, about 2.24 g of sodium dihydrogen phosphate dihydrate, and 3.09 g of sodium chloride were weighed out and dissolved in 500 mL of water, and after dissolution, the pH was adjusted to 6.5 with 1 N sodium hydroxide or 1 N hydrochloric acid.
112 mg of FaSSIF solid was weighed out and placed in a 50 mL volumetric flask, and the buffer described above was added for dissolution. The resulting solution was diluted to volume, mixed well, and left to stand at room temperature for 2 h or more.
Test sample: About 1 mg of the test sample was taken, and 1 mL of FaSSIF solution was added. The mixture was stirred at room temperature overnight and centrifuged, and the supernatant was collected and injected for analysis.
Reference sample solution: About 1.5 mg of the test sample was precisely weighed out and placed in a 50 mL volumetric flask, and DMF was added for dissolution. The resulting solution was diluted to volume and mixed well.
The peak of the main component of the reference sample and the peak of the test sample with the same retention time were integrated, and the concentration thereof in the FaSSIF solution was calculated according to the external standard method.

[3] = Pharmacokinetic test in rats; format: in vivo; conditions: rat, plasma, SD rats; for bioavailability: PO 10 mg/kg vs IV 2 mg/kg
Method: In this experimental example, the pharmacokinetic behavior of the test compounds after administration by intravenous injection (IV) and oral gavage (PO) in SD rats was tested. Preparation of formulations for administration referred to the low-dose pharmacokinetic test in mice.
On the day of administration, rats were weighed for actual body weight, and the administration volume was calculated. Each compound was tested in two groups with 3 rats in each group; one group was subjected to administration by single intravenous injection, and the other group was subjected to administration by single gavage. The whole blood samples were collected via the jugular vein at prescribed time points (0.25 h, 0.5 h, 1 h, 2 h, 4 h, 8 h, and 24 h after administration). After the blood sample collection, the samples were immediately transferred to labeled commercial sample tubes containing K2-EDTA (0.85-1.15 mg), followed by centrifugation (3200× g, 4 °C, 10 min) and plasma collection. The plasma was transferred to a pre-cooled centrifuge tube, frozen in dry ice, and then stored in an ultra-low temperature freezer at -60 °C or lower until the LC-MS/MS analysis was performed.
Plasma concentrations were determined by the LC-MS/MS method. Plasma drug concentration data for the compounds were processed using a non-compartmental model in the WinNonlin Version 6.3 (Pharsight, Mountain View, CA) pharmacokinetic software. The relevant pharmacokinetic parameters were calculated by a linear-log trapezoidal method.

[4] = test system: YAP-TEAD transcription complex; test: YAP-TEAD reporter gene assay (dual luciferase, stably transfected 293T cells); format: cell-based; conditions: Homo sapiens, HEK-293T
[5] = 293T reporter cells, 24 h of drug treatment, read-out: IC50

T1 sequence (P33261 whole entry): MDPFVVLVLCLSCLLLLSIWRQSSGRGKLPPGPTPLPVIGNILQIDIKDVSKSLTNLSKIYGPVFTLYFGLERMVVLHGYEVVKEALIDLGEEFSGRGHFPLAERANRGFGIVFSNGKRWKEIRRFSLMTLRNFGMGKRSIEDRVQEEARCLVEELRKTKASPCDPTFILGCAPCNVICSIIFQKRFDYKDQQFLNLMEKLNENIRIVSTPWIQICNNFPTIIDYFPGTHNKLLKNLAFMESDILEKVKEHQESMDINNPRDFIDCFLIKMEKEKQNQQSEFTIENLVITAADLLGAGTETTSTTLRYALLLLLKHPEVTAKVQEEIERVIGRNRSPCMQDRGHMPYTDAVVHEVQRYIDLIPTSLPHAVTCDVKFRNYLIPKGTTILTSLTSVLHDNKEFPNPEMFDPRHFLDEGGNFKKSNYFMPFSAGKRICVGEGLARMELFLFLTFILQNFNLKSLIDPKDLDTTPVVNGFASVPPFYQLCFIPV

IC50 [4, 5]	SMILES	IC50 [1]	FaSSIF(pH = 6.5) [2]	AUC(0-t) ([3]; IV 2 mg/kg)	MRT ([3]; IV 2 mg/kg)	clearance ([3]; IV 2 mg/kg)	half-life ([3]; IV 2 mg/kg)	AUC(0-t) ([3]; PO 10 mg/kg)	MRT ([3]; PO 10 mg/kg)	half-life ([3]; PO 10 mg/kg)	bioavailability [3]	IC50 ([4]; 24 h)
	CP(C)(=O)c1ccc2c(c1)c1ccccc1n2-c1ccc(C(F)(F)F)cc1 [Example 1]	> 10 µM	>950.5 ug/mL	113 µM·h	46.3 h	0.333 mL/min/kg	32.4 h	605 µM·h	69.9 h	66.9 h	107%	0.0397 µM
0.0571 µM	CP(C)(=O)c1ccc2c(c1)c1cccnc1n2-c1ccc(C(F)(F)F)cc1 [Example 5]		781.7 ug/mL									
	CP(C)(=O)c1ccc2c(Oc3ccc(C(F)(F)F)cc3)cccc2c1 [Example 7]	> 10 µM	1499.5 ug/mL	44.5 µM·h	20.5 h	2 mL/min/kg	15.7 h	308 µM·h	28.5 h	19.5 h	142%	0.00409 µM
	Cn1cnc(-c2cc(P(C)(C)=O)cnc2Nc2ccc(C(F)(F)F)cc2)c1 [Example 8]	> 10 µM	433.97 ug/mL	8.89 µM·h	7.8 h	9 mL/min/kg	6.2 h	59.3 µM·h	20.6 h	14.7 h	133%	0.0424 µM
0.1 µM	CP(C)(=O)c1ccc(Nc2ccc(C(F)(F)F)cc2)c(-c2ccccn2)c1 [Example 10]		89.75 ug/mL	21.7 µM·h	26.5 h	3 mL/min/kg	19 h	152 µM·h	25.7 h	17.8 h	140%	
0.0921 µM	CP(C)(=O)c1ccc(Nc2ccc(C(F)(F)F)cc2)c(-c2ncccn2)c1 [Example 12]			34.9 µM·h	76.3 h	1.17 mL/min/kg	54.2 h	114 µM·h	24.9 h	21.8 h	65%	
	Cn1cnc(-c2cc(P(C)(C)=O)ccc2Nc2ccc(C(F)(F)F)cc2)c1 [Example 14]	> 10 µM	674.6 ug/mL	16.9 µM·h	10.2 h	4.67 mL/min/kg	8.1 h	83.2 µM·h	15 h	10.9 h	98%	0.0202 µM
	CP(C)(=O)c1cnc(Nc2ccc(C(F)(F)F)cc2)c(-c2cn3c(n2)CCC3)c1 [Example 22]	> 10 µM	337.6 ug/mL	6.42 µM·h	7.6 h	11 mL/min/kg	5.8 h	32.2 µM·h	9.6 h	7.3 h	95%	0.0136 µM
	Cc1ccc(Oc2ccc(C(F)(F)F)cc2)c2ccc(P(C)(C)=O)cc12 [Example 24]		193.3 ug/mL									0.135 µM
